What was measured:
Assay type in all cases: cell-based
[1] = biological target: AXL (phospho-AXL, Gas6-stimulated A-172 glioblastoma cells) (Homo sapiens (Human), UniProt P30530); experiment: AXL autophosphorylation ELISA in A-172 cells (Example E); conditions: cellular activity; AXL autophosphorylation ELISA in A-172 cells; read-out: Axl IC50
Method in brief: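 Phospho-AXL in lysates was quantified by ELISA, normalised to DMSO (100%) and reference inhibitor (0%) controls. IC50 by 4-parameter logistic fit.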

[2] = biological target: KDR (phospho-KDR, VEGF165-stimulated HUVEC cells) (Homo sapiens (Human), UniProt P35968); experiment: KDR autophosphorylation ELISA in HUVEC cells (Example G); conditions: cellular activity; KDR autophosphorylation ELISA in HUVEC cells
Method in brief: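 HUVEC cells, serum-starved 24 h, were treated 1 h with an 8-point compound dilution (0.3% DMSO) and then stimulated with 100 ng/mL VEGF165 for 5 min. Phospho-KDR in lysates was quantified by sandwich ELISA against a phospho-KDR standard. IC50 from a 4-parameter logistic fit, normalised between stimulated DMSO and unstimulated controls.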

[3] = biological target: Mer (phospho-Mer, MERTK-transfected 293A cells) (Homo sapiens (Human), UniProt Q12866); experiment: Mer autophosphorylation ELISA in transient transfected 293A cells (Example H); conditions: cellular activity; Mer autophosphorylation ELISA in transient transfected 293A cells
Method in brief: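 Human MERTK transiently transfected into 293A cells; compounds as 8-point dose curve in serum-free medium (0.3% DMSO final), 1 h. Lysates assayed by phospho-Mer sandwich ELISA against phospho-Mer standard; DMSO = 100%, reference inhibitor = 0% activity; IC50 from 4-parameter logistic fit.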

[4] = biological target: Met (phospho-Met, HGF-stimulated PC-3 prostate cancer cells) (Homo sapiens (Human), UniProt P08581); experiment: Met autophosphorylation ELISA in PC-3 cells (Example F); conditions: cellular activity; Met autophosphorylation ELISA in PC-3 cells; read-out: c-Met IC50
Method in brief: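 Serum-starved (3 h) PC-3 cells were treated 1 h with compounds (8-point curve, 0.3% DMSO), then stimulated with 100 ng/mL human HGF for 10 min. Lysate phospho-Met (panTyr) was measured by sandwich ELISA, normalised to DMSO and reference-inhibitor controls. IC50 came from 4-parameter logistic fit.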

Chain of KDR (phospho-KDR, VEGF165-stimulated HUVEC cells) (P35968 20-1356): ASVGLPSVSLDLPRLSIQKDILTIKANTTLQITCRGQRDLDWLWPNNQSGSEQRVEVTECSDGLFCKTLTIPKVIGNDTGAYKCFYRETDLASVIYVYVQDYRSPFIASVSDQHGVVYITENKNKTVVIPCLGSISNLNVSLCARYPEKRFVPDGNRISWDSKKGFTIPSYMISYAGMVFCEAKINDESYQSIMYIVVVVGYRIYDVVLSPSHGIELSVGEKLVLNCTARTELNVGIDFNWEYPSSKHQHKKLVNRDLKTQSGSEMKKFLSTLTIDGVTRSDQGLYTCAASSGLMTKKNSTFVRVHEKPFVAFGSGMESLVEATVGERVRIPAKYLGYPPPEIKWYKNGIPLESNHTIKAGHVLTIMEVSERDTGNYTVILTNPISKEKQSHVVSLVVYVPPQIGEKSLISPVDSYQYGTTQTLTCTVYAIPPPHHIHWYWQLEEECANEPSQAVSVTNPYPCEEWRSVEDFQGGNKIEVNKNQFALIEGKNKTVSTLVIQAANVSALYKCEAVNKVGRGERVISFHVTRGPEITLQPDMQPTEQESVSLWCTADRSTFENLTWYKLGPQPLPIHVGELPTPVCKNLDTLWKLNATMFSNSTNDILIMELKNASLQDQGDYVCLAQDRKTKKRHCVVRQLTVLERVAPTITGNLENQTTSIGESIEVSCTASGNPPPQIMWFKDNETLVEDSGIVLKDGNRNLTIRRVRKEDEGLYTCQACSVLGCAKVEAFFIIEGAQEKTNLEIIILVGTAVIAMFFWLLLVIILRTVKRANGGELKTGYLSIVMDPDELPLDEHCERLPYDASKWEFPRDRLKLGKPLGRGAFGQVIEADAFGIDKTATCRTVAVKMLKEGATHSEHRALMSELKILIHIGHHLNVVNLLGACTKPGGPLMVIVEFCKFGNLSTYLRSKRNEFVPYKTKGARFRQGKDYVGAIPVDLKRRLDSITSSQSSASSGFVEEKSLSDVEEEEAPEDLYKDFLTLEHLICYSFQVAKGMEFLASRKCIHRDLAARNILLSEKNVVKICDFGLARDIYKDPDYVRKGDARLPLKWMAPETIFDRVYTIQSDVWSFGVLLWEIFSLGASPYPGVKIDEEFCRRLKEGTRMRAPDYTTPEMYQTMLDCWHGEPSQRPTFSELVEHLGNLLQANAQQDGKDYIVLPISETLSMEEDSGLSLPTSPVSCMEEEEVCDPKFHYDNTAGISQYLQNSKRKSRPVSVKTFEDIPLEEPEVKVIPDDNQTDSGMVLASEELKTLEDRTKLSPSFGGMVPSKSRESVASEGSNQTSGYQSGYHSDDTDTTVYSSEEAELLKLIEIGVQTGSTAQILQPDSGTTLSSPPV
Chain of AXL (phospho-AXL, Gas6-stimulated A-172 glioblastoma cells) (P30530 26-894): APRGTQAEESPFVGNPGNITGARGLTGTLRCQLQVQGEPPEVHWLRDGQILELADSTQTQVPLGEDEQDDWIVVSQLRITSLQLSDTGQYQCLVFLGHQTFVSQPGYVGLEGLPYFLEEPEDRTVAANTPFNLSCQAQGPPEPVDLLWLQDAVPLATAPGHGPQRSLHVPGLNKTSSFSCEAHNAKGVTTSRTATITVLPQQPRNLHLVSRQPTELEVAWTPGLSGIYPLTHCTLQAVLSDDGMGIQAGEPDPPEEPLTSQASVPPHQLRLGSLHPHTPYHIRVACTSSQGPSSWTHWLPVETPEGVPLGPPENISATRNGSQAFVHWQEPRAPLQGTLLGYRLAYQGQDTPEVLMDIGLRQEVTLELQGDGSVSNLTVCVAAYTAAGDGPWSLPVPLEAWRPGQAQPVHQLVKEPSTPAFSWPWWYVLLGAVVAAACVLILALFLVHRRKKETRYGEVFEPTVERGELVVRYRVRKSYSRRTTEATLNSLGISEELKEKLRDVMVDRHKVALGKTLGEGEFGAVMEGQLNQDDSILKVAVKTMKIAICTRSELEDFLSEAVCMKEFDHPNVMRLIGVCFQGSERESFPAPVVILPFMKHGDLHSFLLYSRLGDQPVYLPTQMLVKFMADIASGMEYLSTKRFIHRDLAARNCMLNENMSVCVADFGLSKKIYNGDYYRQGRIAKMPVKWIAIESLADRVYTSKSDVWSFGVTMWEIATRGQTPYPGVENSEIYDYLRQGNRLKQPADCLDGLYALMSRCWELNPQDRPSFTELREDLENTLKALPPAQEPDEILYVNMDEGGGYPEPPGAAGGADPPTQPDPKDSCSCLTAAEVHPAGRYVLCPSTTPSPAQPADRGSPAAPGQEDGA
Chain of Mer (phospho-Mer, MERTK-transfected 293A cells) (Q12866 21-999): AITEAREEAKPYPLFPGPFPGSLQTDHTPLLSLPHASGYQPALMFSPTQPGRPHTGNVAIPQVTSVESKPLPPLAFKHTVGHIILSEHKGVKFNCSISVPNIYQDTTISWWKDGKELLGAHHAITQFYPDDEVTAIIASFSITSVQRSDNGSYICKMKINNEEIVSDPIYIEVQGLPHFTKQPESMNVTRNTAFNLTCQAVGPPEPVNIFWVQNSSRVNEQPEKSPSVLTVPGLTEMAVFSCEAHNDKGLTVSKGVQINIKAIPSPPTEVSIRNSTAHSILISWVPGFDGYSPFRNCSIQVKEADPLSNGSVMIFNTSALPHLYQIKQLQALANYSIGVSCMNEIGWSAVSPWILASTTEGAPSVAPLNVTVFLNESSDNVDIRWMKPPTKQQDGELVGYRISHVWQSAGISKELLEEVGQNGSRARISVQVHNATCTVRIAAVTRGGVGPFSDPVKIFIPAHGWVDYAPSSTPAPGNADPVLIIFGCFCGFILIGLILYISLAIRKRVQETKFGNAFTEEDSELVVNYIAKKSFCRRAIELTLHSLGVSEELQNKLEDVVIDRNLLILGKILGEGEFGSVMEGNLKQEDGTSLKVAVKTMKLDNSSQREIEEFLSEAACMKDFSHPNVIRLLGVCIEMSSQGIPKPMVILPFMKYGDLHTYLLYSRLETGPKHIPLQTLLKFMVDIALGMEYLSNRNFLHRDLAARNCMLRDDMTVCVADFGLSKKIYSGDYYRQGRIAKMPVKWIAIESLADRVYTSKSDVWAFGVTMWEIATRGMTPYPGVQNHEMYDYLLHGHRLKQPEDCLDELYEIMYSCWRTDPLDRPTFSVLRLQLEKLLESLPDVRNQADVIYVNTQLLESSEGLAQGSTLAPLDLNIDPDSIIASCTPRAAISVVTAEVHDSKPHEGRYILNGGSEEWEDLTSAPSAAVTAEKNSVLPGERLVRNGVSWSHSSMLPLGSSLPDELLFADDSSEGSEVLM
Chain of Met (phospho-Met, HGF-stimulated PC-3 prostate cancer cells) (P08581 25-1390): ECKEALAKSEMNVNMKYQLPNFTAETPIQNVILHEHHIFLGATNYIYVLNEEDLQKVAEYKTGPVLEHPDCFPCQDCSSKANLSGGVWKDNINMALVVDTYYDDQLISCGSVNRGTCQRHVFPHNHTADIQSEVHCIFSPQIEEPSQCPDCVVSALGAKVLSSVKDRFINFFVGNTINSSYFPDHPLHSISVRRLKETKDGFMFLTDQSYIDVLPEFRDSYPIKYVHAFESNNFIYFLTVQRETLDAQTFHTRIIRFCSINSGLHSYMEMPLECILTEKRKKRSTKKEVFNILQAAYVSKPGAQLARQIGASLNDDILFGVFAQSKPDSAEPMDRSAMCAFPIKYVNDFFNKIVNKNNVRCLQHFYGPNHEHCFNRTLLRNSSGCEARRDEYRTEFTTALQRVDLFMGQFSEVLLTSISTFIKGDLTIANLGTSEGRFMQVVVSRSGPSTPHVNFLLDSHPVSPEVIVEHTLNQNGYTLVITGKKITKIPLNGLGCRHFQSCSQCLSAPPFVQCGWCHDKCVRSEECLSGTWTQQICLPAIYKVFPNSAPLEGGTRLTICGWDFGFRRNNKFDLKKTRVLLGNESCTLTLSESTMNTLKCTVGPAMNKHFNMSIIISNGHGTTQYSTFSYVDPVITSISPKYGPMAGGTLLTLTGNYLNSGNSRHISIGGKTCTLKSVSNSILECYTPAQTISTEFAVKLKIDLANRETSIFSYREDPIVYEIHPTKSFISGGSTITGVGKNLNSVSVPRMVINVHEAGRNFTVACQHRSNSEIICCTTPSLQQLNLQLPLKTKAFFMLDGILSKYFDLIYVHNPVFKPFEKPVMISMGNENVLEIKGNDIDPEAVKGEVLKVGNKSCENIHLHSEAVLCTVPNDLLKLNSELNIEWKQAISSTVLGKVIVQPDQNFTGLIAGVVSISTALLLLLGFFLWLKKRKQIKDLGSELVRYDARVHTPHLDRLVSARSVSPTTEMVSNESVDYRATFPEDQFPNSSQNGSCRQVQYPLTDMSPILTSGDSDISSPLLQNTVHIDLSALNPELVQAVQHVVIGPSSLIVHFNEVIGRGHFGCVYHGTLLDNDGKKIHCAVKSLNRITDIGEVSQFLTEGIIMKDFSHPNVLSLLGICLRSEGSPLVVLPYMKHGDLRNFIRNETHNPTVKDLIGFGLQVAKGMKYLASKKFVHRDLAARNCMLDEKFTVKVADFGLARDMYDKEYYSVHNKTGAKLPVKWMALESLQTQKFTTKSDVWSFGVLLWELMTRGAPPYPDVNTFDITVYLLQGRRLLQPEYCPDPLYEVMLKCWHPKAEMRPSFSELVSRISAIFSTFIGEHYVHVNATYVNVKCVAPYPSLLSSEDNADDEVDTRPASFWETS

IC50 [1] | IC50 [2] | IC50 [3] | IC50 [4] | Compound
< 100 nM | > 300 nM | < 100 nM | < 100 nM | CCn1cc(-c2ccc(F)cc2)c(=O)c(C(=O)Nc2ccc(Oc3ccnc4cc(OC)c(OC)nc34)cc2)c1C [Compound 244, N-[4-[(6,7-Dimethoxy-1,5-naphthyridin-4-yl)oxy]phenyl]-1-ethyl-5-(4-fluorophenyl)-2-methyl-4-oxopyridine-3-carboxamide]
< 100 nM | < 100 nM | < 100 nM | < 100 nM | COc1cnc2c(Oc3ccc(NC(=O)c4c(C)nc(C)c(-c5ccc(F)c(OC)c5)c4O)cc3F)ccnc2c1 [Compound 688, N-[3-fluoro-4-[(7-methoxy-1,5-naphthyridin-4-yl)oxy]phenyl]-5-(4-fluoro-3-methoxyphenyl)-4-hydroxy-2,6-dimethylpyridine-3-carboxamide]
< 100 nM | < 100 nM | < 100 nM | < 100 nM | CCOc1nc2c(Oc3ccc(NC(=O)c4c(C)ncc(-c5ccc(F)cc5)c4O)cc3F)ccnc2cc1OC [Compound 675, N-[4-[(6-ethoxy-7-methoxy-1,5-naphthyridin-4-yl)oxy]-3-fluorophenyl]-5-(4-fluorophenyl)-4-hydroxy-2-methylpyridine-3-carboxamide]
< 100 nM | < 100 nM | < 100 nM | < 100 nM | COc1ccc2nccc(Oc3ccc(NC(=O)c4nnc(C)c(-c5ccc(F)cc5)c4OC)cc3F)c2n1 [Compound 538, N-[3-fluoro-4-[(6-methoxy-1,5-naphthyridin-4-yl)oxy]phenyl]-5-(4-fluorophenyl)-4-methoxy-6-methylpyridazine-3-carboxamide]
< 100 nM | < 100 nM | < 100 nM | < 100 nM | COc1cc2nccc(Oc3ccc(NC(=O)c4c(C)c(C)cn(-c5ccc(F)cc5)c4=O)cc3)c2nc1OC [Compound 680, N-[4-[(6,7-dimethoxy-1,5-naphthyridin-4-yl)oxy]phenyl]-1-(4-fluorophenyl)-4,5-dimethyl-2-oxopyridine-3-carboxamide]
< 100 nM | < 100 nM | < 100 nM | < 100 nM | COc1cc2ncnc(Oc3ccc(NC(=O)c4ccc(C)n(-c5ccc(F)cc5)c4=O)cc3F)c2nc1OC [Compound 635]
< 100 nM | < 100 nM | < 100 nM | < 100 nM | COCCOc1cc2nccc(Oc3ccc(NC(=O)c4cn(C)c(C)c(-c5ccc(F)cc5)c4=O)cc3F)c2nc1OC [Compound 486, N-[3-fluoro-4-[[6-methoxy-7-(2-methoxyethoxy)-1,5-naphthyridin-4-yl]oxy]phenyl]-5-(4-fluorophenyl)-1,6-dimethyl-4-oxopyridine-3-carboxamide]
< 100 nM | < 100 nM | < 100 nM | < 100 nM | COCCOc1cc2nccc(Oc3ccc(NC(=O)c4c(C)ccn(-c5ccc(F)cc5)c4=O)cc3)c2nc1OC [Compound 704, 1-(4-fluorophenyl)-N-[4-[[6-methoxy-7-(2-methoxyethoxy)-1,5-naphthyridin-4-yl]oxy]phenyl]-4-methyl-2-oxopyridine-3-carboxamide]
< 100 nM | > 300 nM | < 100 nM | < 100 nM | COc1cc2nccc(Oc3ccc(NC(=O)c4c(Cl)n(C)c(C)c(-c5ccc(F)cc5)c4=O)cc3F)c2nc1OC [Compound 647, 2-chloro-N-[4-[(6,7-dimethoxy-1,5-naphthyridin-4-yl)oxy]-3-fluorophenyl]-5-(4-fluorophenyl)-1,6-dimethyl-4-oxopyridine-3-carboxamide]
< 100 nM | < 100 nM | < 100 nM | < 100 nM | COCCOc1cc2nccc(Oc3ccc(NC(=O)c4c(C)nc(C)c(-c5ccc(F)cc5C)c4O)cc3F)c2nc1OC [Compound 487, N-[3-fluoro-4-[[6-methoxy-7-(2-methoxyethoxy)-1,5-naphthyridin-4-yl]oxy]phenyl]-5-(4-fluoro-2-methylphenyl)-4-hydroxy-2,6-dimethylpyridine-3-carboxamide]
< 100 nM | < 100 nM | < 100 nM | < 100 nM | C=C(C)c1cnc2c(Oc3ccc(NC(=O)c4n[nH]c(C)c(-c5ccc(F)cc5C)c4=O)cc3F)ccnc2c1 [Compound 463, 5-(4-fluoro-2-methylphenyl)-N-[3-fluoro-4-[(7-prop-1-en-2-yl-1,5-naphthyridin-4-yl)oxy]phenyl]-6-methyl-4-oxo-1H-pyridazine-3-carboxamide]
< 100 nM | < 100 nM | < 100 nM | < 100 nM | COCCOc1cnc2c(Oc3ccc(NC(=O)c4c(C)nc(C)c(-c5ccc(F)cc5C)c4O)cc3)ccnc2c1 [Compound 724, 5-(4-fluoro-2-methylphenyl)-4-hydroxy-N-[4-[[7-(2-methoxyethoxy)-1,5-naphthyridin-4-yl]oxy]phenyl]-2,6-dimethylpyridine-3-carboxamide]
< 100 nM | < 100 nM | < 100 nM | < 100 nM | COc1cnc2c(Oc3ccc(NC(=O)c4c(C)c(Br)c(C)n(-c5ccc(F)cc5)c4=O)cc3F)ccnc2c1 [Compound 314, 5-Bromo-N-[3-fluoro-4-[(7-methoxy-1,5-naphthyridin-4-yl)oxy]phenyl]-1-(4-fluorophenyl)-4,6-dimethyl-2-oxopyridine-3-carboxamide]
< 100 nM | < 100 nM | < 100 nM | < 100 nM | COCc1cnn(-c2ccc(F)cc2)c(=O)c1C(=O)Nc1ccc(Oc2ccnc3cc(OC)c(OC)nc23)c(F)c1 [Compound 533, N-[4-[(6,7-dimethoxy-1,5-naphthyridin-4-yl)oxy]-3-fluorophenyl]-2-(4-fluorophenyl)-5-(methoxymethyl)-3-oxopyridazine-4-carboxamide]
< 100 nM | < 100 nM | < 100 nM | < 100 nM | COc1cc2nccc(Oc3ccc(NC(=O)c4c(C)nc(C)c(-c5ccc(F)cc5C)c4O)cc3)c2nc1Cl [Compound 735, N-[4-[(6-chloro-7-methoxy-1,5-naphthyridin-4-yl)oxy]phenyl]-5-(4-fluoro-2-methylphenyl)-4-hydroxy-2,6-dimethylpyridine-3-carboxamide]
< 100 nM | < 100 nM | < 100 nM | < 100 nM | COc1cc2nccc(Oc3ccc(NC(=O)c4cn(C(F)F)c(C)c(-c5ccc(F)cc5)c4=O)cc3F)c2nc1OC [Compound 668, 1-(difluoromethyl)-N-[4-[(6,7-dimethoxy-1,5-naphthyridin-4-yl)oxy]-3-fluorophenyl]-5-(4-fluorophenyl)-6-methyl-4-oxopyridine-3-carboxamide]
< 100 nM | < 100 nM | < 100 nM | < 100 nM | COc1cnc2c(Oc3ccc(NC(=O)c4c(C)c(C)c(C)n(-c5ccc(F)cc5)c4=O)cc3F)ccnc2c1 [Compound 316, N-[3-Fluoro-4-[(7-methoxy-1,5-naphthyridin-4-yl)oxy]phenyl]-1-(4-fluorophenyl)-4,5,6-trimethyl-2-oxopyridine-3-carboxamide]
> 300 nM | < 100 nM | < 100 nM | > 300 nM | COc1cnc2c(Oc3ccc(NC(=O)c4cnc(C)c(-c5ccc(OC)c(F)c5)c4O)cc3F)ccnc2c1 [Compound 698, N-[3-fluoro-4-[(7-methoxy-1,5-naphthyridin-4-yl)oxy]phenyl]-5-(3-fluoro-4-methoxyphenyl)-4-hydroxy-6-methylpyridine-3-carboxamide]
< 100 nM | > 300 nM | < 100 nM | < 100 nM | COc1cnc2c(Oc3ccc(NC(=O)c4cn(CC(F)F)c(C)c(-c5ccc(F)cc5C)c4=O)cc3F)ccnc2c1 [Compound 723, 1-(2,2-difluoroethyl)-N-[3-fluoro-4-[(7-methoxy-1,5-naphthyridin-4-yl)oxy]phenyl]-5-(4-fluoro-2-methylphenyl)-6-methyl-4-oxopyridine-3-carboxamide]
> 300 nM | < 100 nM | < 100 nM | < 100 nM | COc1ccc(-c2c(C)ncc(C(=O)Nc3ccc(Oc4ccnc5cc(OC)cnc45)c(F)c3)c2O)c(F)c1 [Compound 700, N-[3-fluoro-4-[(7-methoxy-1,5-naphthyridin-4-yl)oxy]phenyl]-5-(2-fluoro-4-methoxyphenyl)-4-hydroxy-6-methylpyridine-3-carboxamide]
< 100 nM | 100 to 300 nM | < 100 nM | < 100 nM | COc1cnc2c(Oc3ccc(NC(=O)c4c(C)c(F)c(C)n(-c5ccc(F)cc5)c4=O)cc3F)ccnc2c1 [Compound 326, 5-Fluoro-N-[3-fluoro-4-[(7-methoxy-1,5-naphthyridin-4-yl)oxy]phenyl]-1-(4-fluorophenyl)-4,6-dimethyl-2-oxopyridine-3-carboxamide]
